# Reference: patent US12509452B2, “Substituted-isoxazoline-containing aromatic compound, preparation method therefor, herbicidal composition and use thereof” (QINGDAO KINGAGROOT CHEMICAL COMPOUND CO., LTD., priority 2019, dated 2025)
# Experiments:
# Experiment in all cases: weeding effect in post-emergence stage
# Assay type in all cases: in vivo
# Beckmannia syzigachne = tested on: Beckmannia syzigachne
# Description: (§1) The activity level criteria for plant damage (i.e., growth control rate) are as follows: • Level 5: growth control rate is above 85%; • Level 4: growth control rate is greater than or equal to 60% and less than 85%; • Level 3: growth control rate is greater than or equal to 40% and less than 60%; • Level 2: growth control rate is greater than or equal to 20% and less than 40%; • Level 1: growth control rate is greater than or equal to 5% and less than 20%; • Level 0: growth control rate is less than 5%.
# (§2) The above growth control rates are fresh weight control rates.
# (§3) Experiment on weeding effect in post-emergence stage:
# (§4) Monocotyledonous and dicotyledonous weed seeds (Descurainia sophia, Capsella bursa-pastoris, Abutilon theophrasti, Galium aparine, Stellaria media, Lithospermum arvense, Rorippa indica, Alopecurus aequalis, Alopecurus japonicus, Beckmannia syzigachne, Sclerochloa dura, Conyza Canadensis, Phleum paniculatum, Veronica didyma Tenore, Bromus japonicus, Aegilops tauschii, Phalaris arundinacea, Amaranthus retroflexus, Chenopodium album, Commelina communis, Sonchus arvensis, Convolvulus arvensis, Cirsium setosum, Solanum nigrum, Acalypha australis, Digitaria sanguinalis, Echinochloa crusgalli, Setaria viridis, Setaria glauca, Leptochloa chinensis, Monochoria vaginalis, Sagittaria trifolia, Scirpus juncoides, Cyperus rotundus, Cyperus iria, Cyperus difformis, Fimbristylis, Portulaca oleracea, Xanthium sibiricum, Pharbitis nil, Conyza japonica, etc.) and major crop seeds (wheat, corn, rice, soybean, cotton, oilseed rape, millet, sorghum, potato, sesame, ricinus, etc.) were placed in plastic pots filled with soil, then covered with 0.5-2 cm of soil, allowed to grow in a good greenhouse environment. After 2 weeks of sowing, the test plants were treated in the 2-3 leaf stage. The tested compounds of the present invention were respectively dissolved in acetone, then added with Tween 80 and 1.5 liter/ha of emulsifiable concentrate of methyl oleate as synergist, diluted with a certain amount of water to obtain a solution with a certain concentration, and sprayed with a spray tower onto the plants. After the application, the plants were cultured for 3 weeks in the greenhouse, and then the experimental results of the weeding were counted. The doses of the used compounds were 500, 250, 125, 60, 15, 7.5 g a.i./ha, and the averages were obtained by repeating for three times.
# Alopecurus japonicus = tested on: Alopecurus japonicus
# Description: as §1, §2, §3, §4
# Conyza japonica = tested on: Conyza japonica
# Description: as §1, §2, §3, §4
# Rorippa indica = tested on: Rorippa indica
# Description: as §1, §2, §3, §4
SMILES,"weeding effect in post-emergence stage, Beckmannia syzigachne (activity level) (Beckmannia syzigachne; dose 125 g a.i./ha)","weeding effect in post-emergence stage, Alopecurus japonicus (activity level) (Alopecurus japonicus; dose 125 g a.i./ha)","weeding effect in post-emergence stage, Conyza japonica (activity level) (Conyza japonica; dose 125 g a.i./ha)","weeding effect in post-emergence stage, Rorippa indica (activity level) (Rorippa indica; dose 125 g a.i./ha)","weeding effect in post-emergence stage, Beckmannia syzigachne (activity level) (Beckmannia syzigachne; dose 15 g a.i./ha)","weeding effect in post-emergence stage, Alopecurus japonicus (activity level) (Alopecurus japonicus; dose 15 g a.i./ha)","weeding effect in post-emergence stage, Conyza japonica (activity level) (Conyza japonica; dose 15 g a.i./ha)","weeding effect in post-emergence stage, Rorippa indica (activity level) (Rorippa indica; dose 15 g a.i./ha)"
CCOC(=O)COC(C)C1(C(=O)OCC)CC(c2cc(-n3c(=O)n(C)c(=S)n(C)c3=O)c(F)cc2Cl)=NO1 (mixture of isomers) [Compound 55],5 (Level 5: growth control rate is above 85%),5 (Level 5: growth control rate is above 85%),5 (Level 5: growth control rate is above 85%),5 (Level 5: growth control rate is above 85%),,,,
CCOC(=O)C1(CC)CC(c2cc(-n3c(=O)n(C)c(=S)n(C)c3=O)c(F)cc2Cl)=NO1 (racemic) [Compound 3],5 (Level 5: growth control rate is above 85%),5 (Level 5: growth control rate is above 85%),5 (Level 5: growth control rate is above 85%),5 (Level 5: growth control rate is above 85%),5 (Level 5: growth control rate is above 85%),5 (Level 5: growth control rate is above 85%),5 (Level 5: growth control rate is above 85%),5 (Level 5: growth control rate is above 85%)
CCCC1(C(=O)OCC)CC(c2cc(-n3c(=O)n(C)c(=S)n(C)c3=O)c(F)cc2Cl)=NO1 (racemic) [Compound 4],5 (Level 5: growth control rate is above 85%),5 (Level 5: growth control rate is above 85%),5 (Level 5: growth control rate is above 85%),5 (Level 5: growth control rate is above 85%),4 (Level 4: growth control rate is greater than or equal to 60% and less than 85%),5 (Level 5: growth control rate is above 85%),4 (Level 4: growth control rate is greater than or equal to 60% and less than 85%),5 (Level 5: growth control rate is above 85%)
CCOC(=O)C1(C(C)C)CC(c2cc(-n3c(=O)n(C)c(=S)n(C)c3=O)c(F)cc2Cl)=NO1 (racemic) [Compound 5],5 (Level 5: growth control rate is above 85%),5 (Level 5: growth control rate is above 85%),5 (Level 5: growth control rate is above 85%),5 (Level 5: growth control rate is above 85%),4 (Level 4: growth control rate is greater than or equal to 60% and less than 85%),5 (Level 5: growth control rate is above 85%),4 (Level 4: growth control rate is greater than or equal to 60% and less than 85%),5 (Level 5: growth control rate is above 85%)
CCCCC1(C(=O)OCC)CC(c2cc(-n3c(=O)n(C)c(=S)n(C)c3=O)c(F)cc2Cl)=NO1 (racemic) [Compound 6],5 (Level 5: growth control rate is above 85%),5 (Level 5: growth control rate is above 85%),5 (Level 5: growth control rate is above 85%),5 (Level 5: growth control rate is above 85%),5 (Level 5: growth control rate is above 85%),5 (Level 5: growth control rate is above 85%),5 (Level 5: growth control rate is above 85%),5 (Level 5: growth control rate is above 85%)
CCOC(=O)C1(C2CC2)CC(c2cc(-n3c(=O)n(C)c(=S)n(C)c3=O)c(F)cc2Cl)=NO1 (racemic) [Compound 17],5 (Level 5: growth control rate is above 85%),5 (Level 5: growth control rate is above 85%),5 (Level 5: growth control rate is above 85%),5 (Level 5: growth control rate is above 85%),5 (Level 5: growth control rate is above 85%),5 (Level 5: growth control rate is above 85%),5 (Level 5: growth control rate is above 85%),5 (Level 5: growth control rate is above 85%)
CCOC(=O)C1(CC2CC2)CC(c2cc(-n3c(=O)n(C)c(=S)n(C)c3=O)c(F)cc2Cl)=NO1 (racemic) [Compound 26],5 (Level 5: growth control rate is above 85%),5 (Level 5: growth control rate is above 85%),5 (Level 5: growth control rate is above 85%),5 (Level 5: growth control rate is above 85%),5 (Level 5: growth control rate is above 85%),5 (Level 5: growth control rate is above 85%),5 (Level 5: growth control rate is above 85%),5 (Level 5: growth control rate is above 85%)
CCOC(=O)C1(CBr)CC(c2cc(-n3c(=O)n(C)c(=S)n(C)c3=O)c(F)cc2Cl)=NO1 (racemic) [Compound 31],5 (Level 5: growth control rate is above 85%),5 (Level 5: growth control rate is above 85%),5 (Level 5: growth control rate is above 85%),5 (Level 5: growth control rate is above 85%),,,,
CCOC(=O)C1(C(F)(F)F)CC(c2cc(-n3c(=O)n(C)c(=S)n(C)c3=O)c(F)cc2Cl)=NO1 (racemic) [Compound 33],5 (Level 5: growth control rate is above 85%),5 (Level 5: growth control rate is above 85%),5 (Level 5: growth control rate is above 85%),5 (Level 5: growth control rate is above 85%),,,,
CCOC(=O)C1(CCF)CC(c2cc(-n3c(=O)n(C)c(=S)n(C)c3=O)c(F)cc2Cl)=NO1 (racemic) [Compound 34],5 (Level 5: growth control rate is above 85%),5 (Level 5: growth control rate is above 85%),5 (Level 5: growth control rate is above 85%),5 (Level 5: growth control rate is above 85%),5 (Level 5: growth control rate is above 85%),5 (Level 5: growth control rate is above 85%),5 (Level 5: growth control rate is above 85%),5 (Level 5: growth control rate is above 85%)
CCOC(=O)C1(CC(F)F)CC(c2cc(-n3c(=O)n(C)c(=S)n(C)c3=O)c(F)cc2Cl)=NO1 (racemic) [Compound 35],5 (Level 5: growth control rate is above 85%),5 (Level 5: growth control rate is above 85%),5 (Level 5: growth control rate is above 85%),5 (Level 5: growth control rate is above 85%),,,4 (Level 4: growth control rate is greater than or equal to 60% and less than 85%),5 (Level 5: growth control rate is above 85%)
